One data set concerns E. faecalis 29212. As to the kind of experiment: microbe, parasite or virus in culture. The class given is cell-based. The following applies: Enterococcus faecalis.
Another data set has as its system B. anthracis Ame. Description: microbe, parasite or virus in culture. The class given is cell-based. Particulars: Bacillus anthracis.
Another data set has as its system S. aureus MRSA5. Description: microbe, parasite or virus in culture. The class given is cell-based. Particulars: Staphylococcus aureus.
Data set [1] concerns S. pneumoniae 157E. Description: animal or person. The following applies: Streptococcus pneumoniae, 157E, in Mus musculus, 48 h, read-out: % survival; for responders at 5 mg/kg: sc. The class given is in vivo, mice.
The subject of another data set is B. anthracis Vollum1B. Description: microbe, parasite or virus in culture. The class given is cell-based. Particulars: Bacillus anthracis.
The next data set relates to CHO-K1. The following applies: Chinese hamster.
For data set [2], the system named is S. pneumoniae 700905. Description: microbe, parasite or virus in culture. The class given is cell-based. Particulars: Streptococcus pneumoniae.
The next data set relates to E. faecium 494. As to the kind of experiment: microbe, parasite or virus in culture. The class given is cell-based. The following applies: Enterococcus faecium.
For another data set, the system named is B. anthracis V770. Description: microbe, parasite or virus in culture. The class given is cell-based. Particulars: Bacillus anthracis.
For a further data set, the system named is B. anthracis Sterne. Description: microbe, parasite or virus in culture. The class given is cell-based. Particulars: Bacillus anthracis.
For the next data set, the system named is COS-1. Particulars: African green monkey.
The subject of data set [3] is S. pneumoniae 157E. On the set-up: species or system mice. The following applies: mouse, in vivo.
In another data set the test system is S. pneumoniae PBS1339. Also noted: species or system mice. Particulars: mouse, in vivo.
The test system of data set [4] is S. pneumoniae 700905. Also noted: species or system mice. Particulars: mouse, in vivo.
A further data set deals with 16S rRNA. The following applies: cited from earlier work.
Another data set relates to B. cereus 95/3032. As to the kind of experiment: microbe, parasite or virus in culture. The class given is cell-based. The following applies: Bacillus cereus.
The subject of data set [5] is Protein synthesis of S. aureus RN450. Description: microbe, parasite or virus in culture. The following applies: Staphylococcus aureus. The class given is cell-based.
Data set [6] relates to S. pneumoniae 157E. Description: microbe, parasite or virus in culture. The class given is cell-based. Particulars: Streptococcus pneumoniae.
In a further data set the test system is B. cereus 98/2658. As to the kind of experiment: microbe, parasite or virus in culture. The class given is cell-based. The following applies: Bacillus cereus.
For a further data set, the system named is protein synthesis. The following applies: cited from earlier work.
The test system of another data set is B. cereus 97/4144. Description: microbe, parasite or virus in culture. The class given is cell-based. The following applies: Bacillus cereus.
The next data set concerns S. aureus RN4250. As to the kind of experiment: microbe, parasite or virus in culture. The class given is cell-based.
A further data set deals with B. anthracis V770NPIR. The class given is cell-based.
Another data set has as its system B. cereus 98/2620. As to the kind of experiment: microbe, parasite or virus in culture. The class given is cell-based. The following applies: Bacillus cereus.
A further data set concerns S. aureus RN450. Description: microbe, parasite or virus in culture. The class given is cell-based. The following applies: Staphylococcus aureus.
Data set [7] has as its system Peptidoglycan synthesis of S. aureus RN450. As to the kind of experiment: microbe, parasite or virus in culture. The following applies: Staphylococcus aureus. The class given is cell-based.
The next data set deals with B. anthracis panel. Description: microbe, parasite or virus in culture. The class given is cell-based. The following applies: Bacillus anthracis.

In general, IC50 refers to the concentration that gives 50% inhibition. By IC90 is commonly meant the concentration needed for an effect of 90%.

In brackets after ≈: the same amount, converted by molar mass. Read-outs that look alike come from different tables or passages of the source.

Take `CN(C)c1cc(CN2Cc3ccccc3C2)c(O)c2c1C[C@H]1C[C@H]3[C@H](N(C)C)C(O)=C(C(N)=O)C(=O)[C@@]3(O)C(O)=C1C2=O` [AI]: the MIC in the data set on E. faecalis 29212 was 0.5 µg/mL (≈ 0.849 µM); against B. anthracis Ame it was 0.06 µg/mL (≈ 0.102 µM); in the data set on S. aureus MRSA5, 0.5 µg/mL (≈ 0.849 µM); against B. anthracis Vollum1B, under 0.03 µg/mL; in the data set on S. pneumoniae 700905 [2], 0.06 µg/mL (≈ 0.102 µM); against E. faecium 494 it was 0.5 µg/mL (≈ 0.849 µM). Further, the MIC with B. anthracis V770 was 0.12 µg/mL (≈ 0.204 µM); with B. anthracis Sterne, under 0.03 µg/mL. The responders at 10 mg/kg in the data set with S. pneumoniae 157E [1] (po) is 0%. Also, the responders at 5 mg/kg in the data set on S. pneumoniae 157E [1] was found to be 40%. In addition, the Tox50 in the data set with CHO-K1 and in the data set on COS-1 was over 100 µg/mL throughout.
On to `COc1ccc(-c2cc(CNC(C)CF)c(O)c3c2C[C@H]2C[C@H]4[C@H](N(C)C)C(O)=C(C(N)=O)C(=O)[C@@]4(O)C(O)=C2C3=O)cn1` (stereo partly shown) [AM], for which the MIC against E. faecalis 29212 was 0.13 µg/mL (≈ 0.213 µM); in the data set with B. anthracis Ame, 0.06 µg/mL (≈ 0.0983 µM); against S. aureus MRSA5, 0.25 µg/mL (≈ 0.409 µM); in the data set with B. anthracis Vollum1B, 0.06 µg/mL (≈ 0.0983 µM); against S. pneumoniae 700905 [2] it was 0.06 µg/mL (≈ 0.0983 µM); in the data set with E. faecium 494 it was 0.25 µg/mL (≈ 0.409 µM). In addition, the MIC in the data set with B. anthracis V770 turned out to be 0.12 µg/mL (≈ 0.197 µM); in the data set with B. anthracis Sterne, 0.06 µg/mL (≈ 0.0983 µM). Moreover, the responders at 50 mg/kg in the data set with S. pneumoniae 157E [1] (po) stood at 0%. The responders at 5 mg/kg with S. pneumoniae 157E [1] is 100%. In addition, the Tox50 in the data set on CHO-K1 was 92.85 µg/mL; in the data set on COS-1, over 100 µg/mL.
For the molecule `CN(C)c1cc(CN2CCC3CCCCC3C2)c(O)c2c1C[C@H]1C[C@H]3[C@H](N(C)C)C(O)=C(C(N)=O)C(=O)[C@@]3(O)C(O)=C1C2=O` (stereo partly shown) [AJ], the MIC in the data set on E. faecalis 29212 is 0.5 µg/mL (≈ 0.821 µM); against B. anthracis Ame, under 0.03 µg/mL; against S. aureus MRSA5, 0.5 µg/mL (≈ 0.821 µM); against B. anthracis Vollum1B, under 0.03 µg/mL; with S. pneumoniae 700905 [2], 0.06 µg/mL (≈ 0.0986 µM); against E. faecium 494 it was 0.5 µg/mL (≈ 0.821 µM). Moreover, the MIC against B. anthracis V770 and with B. anthracis Sterne was under 0.03 µg/mL in each case. For the same molecule, in the data set on S. pneumoniae 157E [1] (po), the responders at 50 mg/kg turned out to be 80%. The responders at 5 mg/kg with S. pneumoniae 157E [1] amounted to 100%. The Tox50 with CHO-K1 and in the data set on COS-1 was over 100 µg/mL in each case.
Turning to `CN(C)c1cc(CN2CCC(F)(F)CC2)c(O)c2c1C[C@H]1C[C@H]3[C@H](N(C)C)C(O)=C(C(N)=O)C(=O)[C@@]3(O)C(O)=C1C2=O` [Compound H], the MIC was 0.5 µg/mL (≈ 0.847 µM) against E. faecalis 29212; under 0.03 µg/mL against B. anthracis Ame; 0.35 µg/mL (≈ 0.593 µM) against S. aureus MRSA5; under 0.03 µg/mL with B. anthracis Vollum1B; 0.06 µg/mL (≈ 0.102 µM) with S. pneumoniae 700905 [2]; 0.5 µg/mL (≈ 0.847 µM) against E. faecium 494. Further, the MIC against B. anthracis V770 and in the data set on B. anthracis Sterne was under 0.03 µg/mL in each case. In the data set on S. pneumoniae 157E [3], the “IV and PO efficacy in words” value is “exhibits IV and PO efficacy”. The PD50 with S. pneumoniae 157E [3] (iv) is 1.1 mg/kg; with S. pneumoniae 157E [3] (po) it was 5 mg/kg; in the data set with S. pneumoniae PBS1339 (iv) it was under 5.0 mg/kg; with S. pneumoniae PBS1339 (po), 3.6 mg/kg; with S. pneumoniae 700905 [4] (iv), 2.2 mg/kg; in the data set on S. pneumoniae 700905 [4] (po), 12.7 mg/kg. In the data set on S. pneumoniae 157E [3] (po), the “oral activity in words” value is on record as “exhibited oral activity”. Besides, the “efficacy in model of lung infection in words” value in the data set with S. pneumoniae PBS1339 was “efficacious”. For the same molecule, the Tox50 in the data set with CHO-K1 and in the data set with COS-1 was over 100 µg/mL throughout.
As for `C[C@H]1c2cccc(O)c2C(=O)C2=C(O)[C@]3(O)C(=O)C(C(N)=O)=C(O)[C@@H](N(C)C)[C@@H]3[C@@H](O)[C@@H]21` [Doxycycline, reference compound], in the data set on 16S rRNA, the “effect on reactivity of nucleotides within the 16S rRNA (chemical footprint)” value is on record as “affect the reactivity of nucleotides”. The MIC against E. faecalis 29212 was 4 µg/mL (≈ 9 µM); with B. anthracis Ame, under 0.03 µg/mL; in the data set on B. cereus 95/3032 it was at most 0.06 µg/mL; against S. pneumoniae 157E [6], 0.06 µg/mL (≈ 0.135 µM); in the data set with B. cereus 98/2658, at most 0.06 µg/mL; in the data set with B. cereus 97/4144 it was 4 µg/mL (≈ 9 µM). In addition, the MIC against S. aureus MRSA5 is 4 µg/mL (≈ 9 µM); in the data set on B. anthracis Vollum1B, 0.06 µg/mL (≈ 0.135 µM); in the data set with S. pneumoniae 700905 [2], 4 µg/mL (≈ 9 µM); against E. faecium 494, 16 µg/mL (≈ 36 µM); in the data set on S. aureus RN4250 (Staphylococcus aureus, RN4250), 4 µg/mL (≈ 9 µM); against B. anthracis V770, 1 µg/mL (≈ 2.25 µM). The MIC was determined as 0.12 µg/mL (≈ 0.27 µM) with B. anthracis Sterne, 4 µg/mL (≈ 9 µM) against B. cereus 98/2620 and 0.06 µg/mL (≈ 0.135 µM) in the data set with S. aureus RN450. The figures for the IC50 in data set [5] (read-out: Protein synthesis IC50) and in data set [7] (read-out: Peptidoglycan synthesis IC50) were under 0.03 µg/mL and 3.9 µg/mL (≈ 8.78 µM), respectively. The IC90 in data set [5] (read-out: Protein synthesis IC90) is under 0.03 µg/mL; in data set [7] (read-out: Peptidoglycan synthesis IC90), 18.2 µg/mL (≈ 41 µM). Also, in the data set on protein synthesis, the “inhibition of protein synthesis in words” value is reported as “potent inhibitors of protein synthesis”. Moreover, the PD50 came to 7.1 mg/kg in the data set on S. pneumoniae PBS1339 (iv) and 35.3 mg/kg in the data set with S. pneumoniae PBS1339 (po). Also, the susceptibility in words entry is listed as “resistant” in the data set with S. aureus RN4250 and “fully doxycycline-resistant” in the data set on B. anthracis V770NPIR. This molecule displayed an MIC50 with B. anthracis panel of 0.06 µg/mL (≈ 0.135 µM). This molecule displayed an MIC90 against B. anthracis panel of 0.25 µg/mL (≈ 0.563 µM).

(Values after US8440646B1 (priority 2006, dated 2013).)
